The text below walks through data of ChEMBL document CHEMBL1201862, “PubChem BioAssay data set” (2004).

Test systems include OVCAR-3; TK-10; NCI-H23; A498; KM12; K562; MDA-MB-435; SF-295; COLO 205; SNB-75; LOX IMVI; UACC-62; EKVX; ACHN; CCRF-CEM; MCF7; U-251; RXF 393; SN12C; SF-268.
Assay in all cases: inhibition of tumour cell growth, NCI panel, 48 h

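In this assay, cells in 96-well plates receive the compound at five concentrations for 48 hours. Endpoints are linearly interpolated between the surrounding concentrations. At the GI50, growth is halved.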 Calls of active or inactive are those of the source. No stated cut-off is given here; in the data, active = GI50 up to about 1.1 µM and inactive = higher.

Turning to `COc1ccc(OC)c2c(=S)c3ccccc3[nH]c12`, the GI50 with OVCAR-3 was > 100 µM (inactive); with TK-10 it was > 67.8 µM (inactive); with NCI-H23, 99.8 µM (inactive); with A498, > 92.3 µM (inactive); in the assay on KM12 it was > 100 µM (inactive); in the assay on K562 it was 36.3 µM (inactive). Further, the GI50 with MDA-MB-435 is 71.3 µM (inactive); with SF-295, 92.3 µM (inactive); with COLO 205, 55.2 µM (inactive); in the assay with SNB-75, > 79.6 µM (inactive); in the assay on LOX IMVI, 46.8 µM (inactive); with UACC-62, 60.1 µM (inactive). The GI50 in the assay on EKVX was > 90.2 µM (inactive); in the assay on ACHN, 53 µM (inactive); in the assay with CCRF-CEM it was 35.3 µM (inactive); in the assay with MCF7, 36.7 µM (inactive); in the assay on U-251, > 87.3 µM (inactive); in the assay on RXF 393 it was 54.6 µM (inactive). Moreover, the GI50 in the assay with SN12C was > 100 µM (inactive); in the assay on SF-268, > 86.1 µM (inactive).

`CC(C)[Si](OCC/C=C/C1CCC(=O)C1C(O)C1CCCCC1)(C(C)C)C(C)C` (centres undefined): the GI50 in the assay with OVCAR-3 was 16.5 µM (inactive); with TK-10, 17.9 µM (inactive); in the assay on NCI-H23, 15.6 µM (inactive); with A498, 18.3 µM (inactive); with KM12 it was 15.9 µM (inactive); in the assay with K562 it was 17.2 µM (inactive). In addition, the GI50 in the assay with MDA-MB-435 was 17.9 µM (inactive); in the assay with SF-295, 16 µM (inactive); in the assay on COLO 205 it was 16.3 µM (inactive); in the assay on SNB-75 it was 15.2 µM (inactive); in the assay with LOX IMVI it was 17.1 µM (inactive); in the assay on UACC-62, 14.9 µM (inactive). The GI50 in the assay with EKVX is 15.5 µM (inactive); in the assay on ACHN, 14.8 µM (inactive); with CCRF-CEM, 19.5 µM (inactive); in the assay with MCF7, 15.9 µM (inactive); in the assay with U-251 it was 15.8 µM (inactive); in the assay with RXF 393, 8.89 µM (inactive). In addition, the GI50 in the assay on SN12C was 18.2 µM (inactive); in the assay on SF-268, 7.13 µM (inactive).

With `O=C(/C=C/c1ccc([N+](=O)[O-])cc1)N1CCN(CCOC(c2ccc(F)cc2)c2ccc(F)cc2)CC1`, the GI50 with OVCAR-3 is > 100 µM (inactive); with TK-10, > 100 µM (inactive); in the assay with NCI-H23, > 100 µM (inactive); in the assay with A498, 16 µM (inactive); in the assay on KM12 it was 7.36 µM (inactive); in the assay on K562, 4.99 µM (inactive). Also, the GI50 is 9.84 µM (inactive) in the assay on MDA-MB-435; 69.5 µM (inactive) with SF-295; 11.5 µM (inactive) with COLO 205; 4.7 µM (inactive) in the assay with SNB-75; 24.6 µM (inactive) with LOX IMVI; 13.8 µM (inactive) with UACC-62. Also, the GI50 in the assay on EKVX was > 100 µM (inactive); with ACHN, 4.34 µM (inactive); with CCRF-CEM, 7.01 µM (inactive); in the assay with MCF7, 5.19 µM (inactive); in the assay on U-251 it was > 100 µM (inactive); with RXF 393 it was 9.44 µM (inactive). For the same compound, the GI50 in the assay on SN12C is 4.04 µM (inactive); in the assay with SF-268, > 100 µM (inactive).

As to `Cn1c(=O)c2[nH]c(N=O)nc2n(C)c1=O`, the GI50 with OVCAR-3, in the assay on TK-10, with NCI-H23, in the assay with A498, with KM12 and with K562 was > 100 µM (inactive) throughout. The GI50 with MDA-MB-435, in the assay with SF-295, in the assay on COLO 205, with SNB-75, in the assay with LOX IMVI and in the assay on UACC-62 was > 100 µM (inactive) throughout. For the same compound, the GI50 in the assay on EKVX, in the assay on MCF7, in the assay with U-251, in the assay on RXF 393, in the assay on SN12C and in the assay with SF-268 was > 100 µM (inactive) each time.

With `CC(C)(C)OC(=O)NC(Cc1ccc(OCc2ccccc2)cn1)C(N)=O` (centres undefined), the GI50 in the assay with OVCAR-3 was 94.8 µM (inactive); in the assay with TK-10, > 100 µM (inactive); in the assay with NCI-H23 it was 86.5 µM (inactive); in the assay on A498 it was > 100 µM (inactive); in the assay on KM12, > 100 µM (inactive); with K562 it was > 100 µM (inactive). The GI50 in the assay on MDA-MB-435, with SF-295, in the assay on COLO 205, in the assay with SNB-75, with LOX IMVI and in the assay with EKVX was > 100 µM (inactive) throughout. Besides, the GI50 was > 100 µM (inactive) in the assay with ACHN; > 100 µM (inactive) with CCRF-CEM; 46.3 µM (inactive) in the assay on MCF7; > 100 µM (inactive) in the assay on U-251; > 100 µM (inactive) with RXF 393; > 100 µM (inactive) in the assay on SN12C. The GI50 in the assay on SF-268 is > 100 µM (inactive).

In the case of `Cc1cccc(NC(=S)Nc2ccc(Cl)cc2)n1`, the GI50 in the assay with TK-10 is > 100 µM (inactive); with NCI-H23 it was > 100 µM (inactive); in the assay on A498 it was > 100 µM (inactive); with KM12, 3.1 µM (inactive); in the assay on K562, > 100 µM (inactive); with MDA-MB-435, > 100 µM (inactive). For the same compound, the GI50 in the assay on SF-295, in the assay with COLO 205, in the assay on SNB-75, in the assay on LOX IMVI, with UACC-62 and in the assay on EKVX was > 100 µM (inactive) in each case. In addition, the GI50 in the assay with ACHN, with CCRF-CEM, in the assay on MCF7, in the assay with U-251, with RXF 393 and with SF-268 was > 100 µM (inactive) in each case.

For the compound `CCOC(=O)c1nc2ccc(C(F)(F)F)cc2nc1Nc1ccc(F)cc1`, the GI50 in the assay with OVCAR-3 is > 100 µM (inactive); in the assay on TK-10, 92.3 µM (inactive); with NCI-H23, 40.3 µM (inactive); in the assay with A498, > 100 µM (inactive); in the assay with KM12, > 100 µM (inactive); with K562, > 100 µM (inactive). Further, the GI50 in the assay with MDA-MB-435 was > 100 µM (inactive); in the assay on SF-295, 49.2 µM (inactive); with COLO 205, > 100 µM (inactive); in the assay with SNB-75 it was 32.1 µM (inactive); in the assay with LOX IMVI, > 100 µM (inactive); with UACC-62, > 100 µM (inactive). The GI50 with ACHN is > 100 µM (inactive); in the assay on CCRF-CEM, > 10 µM (inactive); in the assay on MCF7 it was > 100 µM (inactive); in the assay with RXF 393, 38.5 µM (inactive); with SN12C, > 100 µM (inactive); in the assay on SF-268 it was 52.1 µM (inactive).

For `Cc1ccc(S(=O)(=O)NCCCSCCO)cc1`, the GI50 in the assay with OVCAR-3 was 31.6 µM (inactive); in the assay with TK-10, 90.8 µM (inactive); in the assay on NCI-H23 it was 25.6 µM (inactive); with A498, > 100 µM (inactive); in the assay with KM12, 20.6 µM (inactive); in the assay on K562, 38.4 µM (inactive). Besides, the GI50 in the assay with MDA-MB-435 was 45.2 µM (inactive); in the assay on SF-295 it was > 100 µM (inactive); with COLO 205, 18.3 µM (inactive); in the assay on SNB-75, 33.1 µM (inactive); in the assay with LOX IMVI, 29 µM (inactive); with ACHN, > 100 µM (inactive). Further, the GI50 in the assay on CCRF-CEM is 33.3 µM (inactive); in the assay with MCF7 it was 32.8 µM (inactive); in the assay with U-251 it was 8.26 µM (inactive); in the assay with RXF 393, > 100 µM (inactive); in the assay with SN12C, 43 µM (inactive); in the assay on SF-268, 10 µM (inactive).

Consider `C=C(Cl)CN1c2ccccc2C=Cc2ccccc21`, for which the GI50 in the assay on OVCAR-3 is 15.7 µM (inactive); in the assay on TK-10, 48.3 µM (inactive); with NCI-H23, > 100 µM (inactive); in the assay on A498, 34.7 µM (inactive); in the assay on KM12, 11 µM (inactive); with MDA-MB-435 it was 14.9 µM (inactive). In addition, the GI50 was 10.4 µM (inactive) in the assay on SF-295; 12.8 µM (inactive) in the assay on COLO 205; 24.7 µM (inactive) in the assay on SNB-75; 11 µM (inactive) in the assay with LOX IMVI; 10.1 µM (inactive) in the assay with UACC-62; 19.1 µM (inactive) with EKVX. Moreover, the GI50 in the assay with ACHN is 7.05 µM (inactive); in the assay with MCF7, 15.2 µM (inactive); in the assay with U-251, 10.1 µM (inactive); in the assay with RXF 393, 13 µM (inactive); in the assay with SN12C, 20.6 µM (inactive); with SF-268 it was 15.7 µM (inactive).

In the case of `C=C(C)[C@@H]1CC[C@]2(C(=O)O)CC[C@]3(C)[C@H](CC[C@@H]4[C@@]5(C)CC(=O)C(C)(C)[C@@H]5CC[C@]43C)[C@@H]12`, the GI50 with OVCAR-3 was 6.38 µM (inactive); with TK-10, 11 µM (inactive); in the assay on NCI-H23, 10.9 µM (inactive); in the assay on A498, 5.6 µM (inactive); with KM12 it was 8.77 µM (inactive); in the assay on K562, 6.38 µM (inactive). In addition, the GI50 is 8.02 µM (inactive) in the assay with MDA-MB-435; 6.47 µM (inactive) in the assay on SF-295; 4.68 µM (inactive) in the assay on COLO 205; 10.6 µM (inactive) in the assay with SNB-75; 8.36 µM (inactive) in the assay with LOX IMVI; 3.28 µM (inactive) in the assay with UACC-62. Also, the GI50 with EKVX was 9.35 µM (inactive); in the assay with ACHN, 7.53 µM (inactive); in the assay on CCRF-CEM it was 0.574 µM (active); in the assay on MCF7, 6.64 µM (inactive); in the assay with U-251, 6.47 µM (inactive); in the assay on RXF 393 it was 7.87 µM (inactive). Further, the results for the GI50 in the assay on SN12C and with SF-268 were 4.46 µM (inactive) and 14.8 µM (inactive), respectively.
